The test system of this experiment is PBMCs infected with VSV-G pseudotyped HIV virus (VSV-G/pNLGI-P2A-ΔEnv). Briefly: cells. As to conditions: Homo sapiens, PBMC, read-out: TACK EC50 (nM). The experiment is classed as cell-based.
With `COc1cc(=O)n(Cc2cc3c(cc2F)[C@@](C#CC2CC2)(C(C)(F)F)OC(=O)N3)cn1` [Example 24, (S)-4-(cyclopropylethynyl)-4-(1,1-difluoroethyl)-6-fluoro-7-((4-methoxy-6-oxopyrimidin-1(6H)-yl)methyl)-1,4-dihydro-2H-benzo[d][1,3]oxazin-2-one], the EC50 came out at 9 nM.
`CC(F)(F)[C@@]1(C#CC2CC2)OC(=O)Nc2cc(Cn3ccnc(N)c3=O)c(Cl)cc21` [Example 25, (S)-7-((3-amino-2-oxopyrazin-1(2H)-yl)methyl)-6-chloro-4-(cyclopropylethynyl)-4-(1,1-difluoroethyl)-1,4-dihydro-2H-benzo[d][1,3]oxazin-2-one]: the 50% effective concentration (EC50) stood at 37 nM.
Regarding `CC(F)(F)[C@@]1(C#CC2CC2)OC(=O)Nc2cc(Cn3cnccc3=O)c(Cl)cc21` [Example 26, (S)-6-chloro-4-(cyclopropylethynyl)-4-(1,1-difluoroethyl)-7-((6-oxopyrimidin-1(6H)-yl)methyl)-1,4-dihydro-2H-benzo[d][1,3]oxazin-2-one], the EC50 amounted to 16 nM.
As to `COCc1cc(=O)n(Cc2cc3c(cc2Cl)[C@@](C#CC2CC2)(C(C)(F)F)OC(=O)N3)cn1` [Example 27, (S)-6-chloro-4-(cyclopropylethynyl)-4-(1,1-difluoroethyl)-7-((4-(methoxymethyl)-6-oxopyrimidin-1(6H)-yl)methyl)-1,4-dihydro-2H-benzo[d][1,3]oxazin-2-one], the EC50 came to 16 nM.
With `Cc1cc(=O)n(Cc2cc3c(cc2Cl)[C@@](C#CC2CC2)(C(C)(F)F)OC(=O)N3)cn1` [Example 28, (S)-6-chloro-4-(cyclopropylethynyl)-4-(1,1-difluoroethyl)-7-((4-methyl-6-oxopyrimidin-1(6H)-yl)methyl)-1,4-dihydro-2H-benzo[d][1,3]oxazin-2-one], the concentration giving a half-maximal response (EC50) was found to be 15 nM.
The same measure for `N#Cc1c(Cc2cc3c(cc2Cl)[C@@](C#CC2CC2)(C(F)(F)F)OC(=O)N3)ccnc1N` [Example 33, (S)-2-amino-4-((6-chloro-4-(cyclopropylethynyl)-2-oxo-4-(trifluoromethyl)-1,4-dihydro-2H-benzo[d][1,3]oxazin-7-yl)methyl)nicotinonitrile]: 213 nM; for `CC(F)(F)[C@@]1(C#CC2CC2)OC(=O)Nc2cc(Cc3ccnc(N)c3C#N)c(Cl)cc21` [Example 34, (S)-2-amino-4-((6-chloro-4-(cyclopropylethynyl)-4-(1,1-difluoroethyl)-2-oxo-1,4-dihydro-2H-benzo[d][1,3]oxazin-7-yl)methyl)nicotinonitrile]: 76 nM.
The same measure for `CC(F)(F)[C@@]1(C#CC2CC2)OC(=O)Nc2cc(Cc3ccnc(N)c3C#N)ccc21` [Example 35, (S)-2-amino-4-((4-(cyclopropylethynyl)-4-(1,1-difluoroethyl)-2-oxo-1,4-dihydro-2H-benzo[d][1,3]oxazin-7-yl)methyl)nicotinonitrile]: 20 nM.
In the case of `CC(F)(F)[C@@]1(C#CC2CC2)OC(=O)Nc2cc(Cc3ccnc(N)c3C#N)c(F)cc21` [Example 36, (S)-2-amino-4-((4-(cyclopropylethynyl)-4-(1,1-difluoroethyl)-6-fluoro-2-oxo-1,4-dihydro-2H-benzo[d][1,3]oxazin-7-yl)methyl)nicotinonitrile] it was 18 nM.
Take `CC(F)(F)[C@@]1(C#CC2CC2)OC(=O)Nc2cc(Cc3ccnc(N)n3)ccc21` [Example 37, (S)-7-((2-aminopyrimidin-4-yl)methyl)-4-(cyclopropylethynyl)-4-(1.1-difluoroethyl)-1.4-dihydro-2H-benzo[d][1.3]oxazin-2-one]: the half-maximal effective concentration (EC50) came to 43 nM.
In the case of `Nc1nccc(Cc2cc3c(cc2Cl)[C@@](C#CC2CC2)(C(F)(F)F)OC(=O)N3)n1` [Example 38, (S)-7-((2-aminopyrimidin-4-yl)methyl)-6-chloro-4-(cyclopropylethynyl)-4-(trifluoromethyl)-1,4-dihydro-2H-benzo[d][1,3]oxazin-2-one], the concentration for a half-maximal effect (EC50) amounted to 149 nM.
In the case of `CC(F)(F)[C@@]1(C#CC2CC2)OC(=O)Nc2cc(Cc3ccnc(N)n3)c(F)cc21` [Example 39, (S)-7-((2-aminopyrimidin-4-yl)methyl)-4-(cyclopropylethynyl)-4-(1,1-difluoroethyl)-6-fluoro-1,4-dihydro-2H-benzo[d][1,3]oxazin-2-one] it was 16 nM; in that of `CC(F)(F)[C@@]1(C#CC2CC2)OC(=O)Nc2cc(Cc3ccnc(N)n3)c(Cl)cc21` [Example 40, (S)-7-((2-aminopyrimidin-4-yl)methyl)-6-chloro-4-(cyclopropylethynyl)-4-(1,1-difluoroethyl)-1,4-dihydro-2H-benzo[d][1,3]oxazin-2-one], 65 nM.
